According to publication PMC6401476, “The Evolution of SlyA/RovA Transcription Factors from Repressors to Countersilencers in Enterobacteriaceae” (mBio, 2019):

How the values were obtained:
SlyA [1] = target: T1, SlyA (Salmonella enterica, UniProt P40676); test: crystal structure at […] Å; 1H, […]-TROSY NMR; supported by in vitro transcription; type: binding
T1 construct: His-SlyA (N-terminal 6×His-tagged)

SlyA [2] = target: T1, SlyA; test: intrinsic tryptophan fluorescence quenching; 1H, […]-TROSY NMR; type: binding
[3] = target: the molecule itself; test: crystal structure; His-SlyA co-crystallised with 75 mM sodium salicylate; sitting-drop vapor diffusion, room temperature; 20% PEG 400, 10% glycerol, 0.1 M phosphate-citrate buffer pH 4.2, 0.2 M ammonium sulfate; space group P21212, two SlyA molecules in the asymmetric unit, each dimer completed by space group symmetry

T1 sequence (P40676 whole entry): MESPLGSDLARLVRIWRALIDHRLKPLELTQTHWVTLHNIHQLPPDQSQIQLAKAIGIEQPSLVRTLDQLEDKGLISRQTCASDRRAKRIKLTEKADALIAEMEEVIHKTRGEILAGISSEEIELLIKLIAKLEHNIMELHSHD

Molecule: O=C(O)c1ccccc1O [salicylate]
- crystal structure at 2.3 Å; 1H,15N-TROSY NMR; supported by in vitro transcriptio (SlyA [1]): The crystal structure of the SlyA dimer with salicylate bound at sites I and II was determined

Molecule: O=C(O)c1ccccc1 [benzoate]
- Kd (SlyA [2]): ~40 µM

B1: SlyA of Salmonella enterica serovar Typhimurium (His-SlyA) (natural protein)
chain: ESPLGSDLARLVRIWRALIDHRLKPLELTQTHWVTLHNIHQLPPDQSQIQLAKAIGIEQPSLVRTLDQLEDKGLISRQTCASDRRAKRIKLTEKADALIAEMEEVIHKTRGEILAGISSEEIELLIKLIAKLEHNIMELHSHD
notes: SlyA, MarR family transcription factor, Salmonella enterica serovar Typhimurium; the tips of the wings are not seen in the model; Residue numbers in the text are based on an alignment of SlyA orthologs and are not in register with the numbers of the deposited PDB file 3DEU; Strains were built in the ATCC 14028s background; also called SlyASTM; SlyASTm; not shown: 6xHis, N-terminal, kept
- stoichiometry N [3]: 2
